Measured values: patent US20250262298A1, “STING MODULATOR COMPOUNDS WITH SULFAMATE LINKAGES, AND METHODS OF MAKING AND USING” (TAKEDA PHARMACEUTICAL COMPANY LIMITED, priority 2018, published 2025)

Columns and labels:
[1] = system: THP1-Dual cells (Lucia luciferase under ISG54 promoter); assay: THP-1 Dual Lucia reporter gene assay; format: cell-based, human; settings: luminescence signal induction, 20 hours at 37° C.
Description: THP1-Dual™ cells (InvivoGen #thpd-nfis) were derived from the human THP-1 monocyte cell line by stable integration of the Lucia luciferase gene, a secreted luciferase reporter gene, under the control of an ISG54 (interferon-stimulated gene) minimal promoter in conjunction with five interferon (IFN)-stimulated response elements. On the day of experiment, the cells were plated to a black, 384-well plate (Corning 356697) at 7500 cells/25 μl per well density in growth media (RPMI 1640, 2 mM L-glutamine, 25 mM HEPES, 10% heat-inactivated fetal bovine serum, 100 μg/mL Normocin™, 50 U/mL-50 μg/mL Pen-Strep, 10 μg/mL of blasticidin, and 100 μg/mL of Zeocin). The cell plates were dosed with 62.5 nL of the testing compounds, and then incubated at 37° C. for 20 hours. At the end of the incubation, 15 μL/well of the QUANTI-Luc™ (InvivoGen #rep-qlc1) were added, and luminescence was measured immediately using the LeadSeeker.
For the assay method described above, test compound percent luminescence signal induction, at various concentrations, was calculated relative to untreated and DMSO only treated samples. Compound concentration versus percent signal induction curves were fitted to generate EC50 values. One skilled in the art will appreciate that the values generated as EC50 values are subject to experimental variation.

Human STING = Human STING (Homo sapiens (Human), UniProt Q86WV6, H232R); assay: Human STING TR-FRET assay; format: binding; settings: human STING residues 140-379 (H232R), 100 nM; fluorescein labeled ligand 100 nM; 60 minutes at rt
Human STING, sequence (Q86WV6 140-379 H232R): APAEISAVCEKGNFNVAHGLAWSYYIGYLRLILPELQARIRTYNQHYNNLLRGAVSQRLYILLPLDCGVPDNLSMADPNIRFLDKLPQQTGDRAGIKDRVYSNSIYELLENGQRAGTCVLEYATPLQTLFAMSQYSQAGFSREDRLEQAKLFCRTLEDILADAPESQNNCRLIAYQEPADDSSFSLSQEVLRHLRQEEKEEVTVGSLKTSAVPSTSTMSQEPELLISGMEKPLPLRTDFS
Description: Human STING (accession number GB:BC047779) DNA encoding residues 140-379 (H232R) was cloned into pET28 as N-terminal HIS and C-terminal Avi tagged fusion protein, and a rTEV cleavage site between HIS tag and STING. The sequence was verified before recombinant protein expression using E. coli expression system.
For expression, STING expression vector was transformed into BL21(DE3) cells. The expression was induced by adding IPTG and expressing in 16° C. for 20 hours.
For purification, STING was purified by Nickel affinity resin (Thermo Scientific #25215), followed by TEV enzyme cleavage and Superdex 200 column (GE Healthcare #28-9893-35) purification. For site directed in vitro biotinylation, purified Avi-tagged STING protein was incubated with Biotin (SUPELCO #47868), ATP (SIGMA #A-7699) and BirA enzyme, followed by further purification through a Superdex 200 column (GE Healthcare #28-9893-35). Biotinylation was confirmed by Mass Spectrometry analysis.
40 nL of test compounds in DMSO were added to wells in a white, 384 well microtitre plate (Greiner 784075). 2 uL STING assay buffer (PBS and 0.01% BSA) containing fluorescein labeled ligand (c[G(2′,5′)p-2′-Fluo-AHC-A(3′,5′)p]-Biolog C 195, 100 nM final) and Tb labeled Streptavidin (Streptavidin-Tb cryptate-CisBio 610SATLB) were added. Then 2 uL STING assay buffer containing STING protein (100 nM final) was added and the mixture was incubated at rt for 60 minutes. The plates were then read on a BMG PheraStar Plus reader (LanthaScreen module).
For the assay method described above, test compound percent inhibition, at various concentrations, was calculated relative to untreated and DMSO only treated samples. Compound concentration versus percent inhibition curves were fitted to generate IC50 values. One skilled in the art will appreciate that the values generated either as percentage inhibition at a single concentration or IC50 values are subject to experimental variation.

| Compound | EC50 ([1]; Homo sapiens, THP1-Dual, 20 h) [µM] | IC50 (Human STING) [µM] | EC50 [1] [µM] |
| --- | --- | --- | --- |
| Nc1nc2c(ncn2[C@@H]2O[C@@H]3COP(=O)(S)O[C@H]4C[C@H](Oc5ccncn5)C[C@@H]4CNS(=O)(=O)O[C@@H]2C3)c(=O)[nH]1 (single isomer, unassigned) [Compound I-1] | > 25 |  |  |
| Nc1nc2c(ncn2[C@@H]2O[C@@H]3CNS(=O)(=O)O[C@H]4C[C@H](n5cnc6c(N)ncnc65)O[C@@H]4COP(=O)(S)O[C@@H]2C3)c(=O)[nH]1 (single isomer, unassigned) [Compound I-2a] |  | > 100 | > 25 |
| Nc1nc2c(ncn2[C@@H]2O[C@@H]3CNS(=O)(=O)O[C@H]4C[C@H](n5cnc6c(N)ncnc65)O[C@@H]4COP(=O)(S)O[C@@H]2C3)c(=O)[nH]1 (single isomer, unassigned) [Compound I-2b] |  | 10 to 100 | 10 to 25 |
| Nc1nc2c(ncn2[C@@H]2O[C@@H]3COP(=O)(S)O[C@H]4C[C@H](n5cnc6c(N)ncnc65)O[C@@H]4CNS(=O)(=O)O[C@@H]2C3)c(=O)[nH]1 (single isomer, unassigned) [Compound I-3] | < 1 | < 1 |  |
| Nc1nc2c(ncn2[C@@H]2O[C@@H]3COP(=O)(S)O[C@H]4[C@@H](F)[C@H](n5cnc6c(N)ncnc65)O[C@@H]4CNS(=O)(=O)O[C@@H]2C3)c(=O)[nH]1 (single isomer, unassigned) [Compound I-4a] | < 1 | < 1 |  |
| Nc1nc2c(ncn2[C@@H]2O[C@@H]3COP(=O)(S)O[C@H]4[C@@H](F)[C@H](n5cnc6c(N)ncnc65)O[C@@H]4CNS(=O)(=O)O[C@@H]2C3)c(=O)[nH]1 (single isomer, unassigned) [Compound I-4b] |  | < 1 | < 1 |
| Nc1nc2c(ncn2[C@@H]2O[C@@H]3CNS(=O)(=O)O[C@H]4C[C@H](n5cnc6cncnc65)C[C@@H]4COP(=O)(S)O[C@@H]2C3)c(=O)[nH]1 (single isomer, unassigned) [Compound I-6] | > 25 | > 100 |  |
| Nc1nc2c(ncn2[C@@H]2O[C@@H]3COP(=O)(S)O[C@H]4C[C@H](n5nnc6cncnc65)C[C@@H]4CNS(=O)(=O)O[C@@H]2C3)c(=O)[nH]1 (single isomer, unassigned) [Compound I-7] | > 25 | 10 to 100 |  |
| Nc1nc2c(ncn2[C@@H]2O[C@@H]3COP(=O)(S)O[C@H]4C[C@H](n5cnc6cncnc65)C[C@@H]4CNS(=O)(=O)O[C@@H]2C3)c(=O)[nH]1 (single isomer, unassigned) [Compound I-8] | 1 to 10 | 1 to 10 |  |
| Nc1nc2c(ncn2[C@@H]2O[C@@H]3COP(=O)(S)O[C@H]4[C@@H](F)[C@H](n5cnc6cncnc65)O[C@@H]4CNS(=O)(=O)O[C@@H]2[C@@H]3F)c(=O)[nH]1 (single isomer, unassigned) [Compound I-10] | < 1 | < 1 |  |
| Nc1nc2c(ncn2[C@@H]2O[C@@H]3COP(=O)(S)O[C@H]4[C@@H](F)[C@H](n5cnc6cncnc65)O[C@@H]4CNS(=O)(=O)O[C@@H]2C3)c(=O)[nH]1 (single isomer, unassigned) [Compound I-11a] | < 1 | < 1 |  |
| Nc1nc2c(ncn2[C@@H]2O[C@@H]3COP(=O)(S)O[C@H]4[C@@H](F)[C@H](n5cnc6cncnc65)O[C@@H]4CNS(=O)(=O)O[C@@H]2C3)c(=O)[nH]1 (single isomer, unassigned) [Compound I-11b] |  |  | < 1 |
| Nc1nc2c(ncn2[C@@H]2O[C@@H]3COS(=O)(=O)N[C@H]4C[C@H](n5cnc6c(N)ncnc65)O[C@@H]4COP(=O)(S)O[C@@H]2C3)c(=O)[nH]1 (single isomer, unassigned) [Compound I-12a] | < 1 | < 1 |  |
| Nc1nc2c(ncn2[C@@H]2O[C@@H]3COS(=O)(=O)N[C@H]4C[C@H](n5cnc6c(N)ncnc65)O[C@@H]4COP(=O)(S)O[C@@H]2C3)c(=O)[nH]1 (single isomer, unassigned) [Compound I-12b] | > 25 | 1 to 10 |  |
| Nc1nc2c(ncn2[C@@H]2O[C@@H]3COP(=O)(S)O[C@H]4[C@@H](F)[C@H](n5cnc6cncnc65)O[C@@H]4CNS(=O)(=O)O[C@@H]2[C@@H]3OCC(F)(F)F)c(=O)[nH]1 (single isomer, unassigned) [Compound I-13a] | < 1 | < 1 |  |
| Nc1nc2c(ncn2[C@@H]2O[C@@H]3COP(=O)(S)O[C@H]4[C@@H](F)[C@H](n5cnc6cncnc65)O[C@@H]4CNS(=O)(=O)O[C@@H]2[C@@H]3OCC(F)(F)F)c(=O)[nH]1 (single isomer, unassigned) [Compound I-13b] |  | < 1 | < 1 |
| Nc1nc2c(ncn2[C@@H]2O[C@@H]3CO[P@](=O)(S)O[C@@H]4[C@@H](CNS(=O)(=O)O[C@@H]2C3)C[C@@H](n2cnc3cncnc32)[C@@H]4F)c(=O)[nH]1 (single isomer, unassigned) [Compound I-14] |  | < 1 | < 1 |
| Nc1nc2c(ncn2[C@@H]2O[C@@H]3COP(=O)(S)O[C@H]4[C@@H](F)[C@H](n5cnc6c(=O)[nH]cnc65)O[C@@H]4CNS(=O)(=O)O[C@@H]2C3)c(=O)[nH]1 (single isomer, unassigned) [Compound I-15] | < 1 |  |  |
| Nc1nc2c(ncn2[C@@H]2O[C@@H]3COP(=O)(S)O[C@H]4[C@@H](F)[C@H](n5cnc6c(N)ncnc65)O[C@@H]4CNS(=O)(=O)O[C@@H]2[C@@H]3F)c(=O)[nH]1 (single isomer, unassigned) [Compound I-16] | < 1 | < 1 |  |
| Nc1nc2c(ncn2[C@@H]2O[C@@H]3COS(=O)(=O)N[C@H]4[C@@H](F)[C@H](n5cnc6c(N)ncnc65)O[C@@H]4COP(=O)(S)O[C@@H]2C3)c(=O)[nH]1 (single isomer, unassigned) [Compound I-17] | < 1 | < 1 |  |
| Cn1cc([C@@H]2O[C@@H]3CNS(=O)(=O)O[C@@H]4C[C@@H](COP(=O)(S)O[C@H]3[C@H]2F)O[C@H]4n2cnc3c(=O)[nH]c(N)nc32)c2ncnc(N)c21 (single isomer, unassigned) [Compound I-19] | > 25 | 1 to 10 |  |
| Nc1ncnc2c1ncn2[C@@H]1O[C@@H]2CNS(=O)(=O)O[C@@H]3C[C@@H](COP(=O)(S)O[C@H]2[C@H]1F)O[C@H]3n1cc(F)c2c(=O)[nH]cnc21 (single isomer, unassigned) [Compound I-20] | 1 to 10 | < 1 |  |
| Nc1nc2c(ncn2[C@@H]2O[C@@H]3COP(=O)(O)O[C@H]4C[C@H](n5cnc6c(N)ncnc65)O[C@@H]4CNS(=O)(=O)O[C@@H]2C3)c(=O)[nH]1 [Compound I-5, 2-amino-9-[(5S,7R,8R,12aR,14R,15aS)-14-(6-amino-9H-purin-9-yl)-2-hydroxy-2,10,10-trioxidodecahydro-5,8-methanofuro[2,3-m][1,3,6,9,10,11,2]tetraoxathiazaphosphacyclotetradecin-7-yl]-1,9-dihydro-6H-purin-6-one] | < 1 | 1 to 10 |  |
| Nc1nc2c(ncn2[C@@H]2O[C@@H]3CNS(=O)(=O)O[C@H]4C[C@H](n5cnc6c(N)ncnc65)O[C@@H]4COP(=O)(O)O[C@@H]2C3)c(=O)[nH]1 [Compound I-9, 2-amino-9-[(5S,7R,8R,12aR,14R,15aS)-14-(6-amino-9H-purin-9-yl)-10-hydroxy-2,2,10-trioxidooctahydro-3H,12H-5,8-methanofuro[3,2-l][1,3,6,11,10,9,2]tetraoxathiazaphosphacyclotetradecin-7-yl]-1,9-dihydro-6H-purin-6-one] | > 25 | 10 to 100 |  |
